Assay results as given in paper PMC7961853 (Journal of medicinal chemistry, 2020).

Columns and labels:
[1] = test system: GluN2C- and GluN2D-containing receptors; experiment: TEVC recordings, values stated in text jointly for GluN2C/D; assay type: cell-based, rat; settings: for pEC50 at GluN2C/D / p(doubling conc.) at GluN2C/D: value or range over GluN2C and GluN2D; for maximum potentiation at GluN2C/D: fitted max, range over GluN2C and GluN2D, saturating co-agonists; for activity at GluN2C/D in words: TEVC evaluation
[2] = 20 mg/kg i.p., cited from earlier work
[3] = plasma protein binding by equilibrium dialysis; assay type: in vitro ADME, rat; settings: 1 μM of drug
α4β2-nACh = assay type: cell-based; settings: 10 μM compound, saturating agonist
[4] = test system: GluN2A- or GluN2B-containing receptors; experiment: TEVC recordings, values stated jointly for GluN2A/B; assay type: cell-based, rat; settings: 10 or 30 μM compound
GluN1/GluN2C [5] = target: GluN1/GluN2C (Rattus norvegicus, UniProt Q00961); settings: percent of control, 100 μM glutamate and 30 μM glycine
GluN1/GluN2D = GluN1/GluN2D (Rattus norvegicus, UniProt Q62645); settings: percent of control, 100 μM glutamate and 30 μM glycine
[6] = target: GluN2A-containing receptors; settings: cited from earlier work
[7] = stability as a powder or DMSO stock; assay type: physicochemical; settings: room temperature under regular atmosphere; longest time tested
[8] = pharmacokinetics in mice, i.p. dosing, plasma and brain by LC/MS-MS; settings: male, C57Bl/6, mouse, ip, 10 mg/kg
GluN1/GluN2C [9] = target: GluN1/GluN2C (Rattus norvegicus, UniProt P35439+Q00961); experiment: cell-based
Chain of GluN1/GluN2C (Rattus norvegicus, UniProt P35439+Q00961) (Q00961 20-1237, other chains not shown): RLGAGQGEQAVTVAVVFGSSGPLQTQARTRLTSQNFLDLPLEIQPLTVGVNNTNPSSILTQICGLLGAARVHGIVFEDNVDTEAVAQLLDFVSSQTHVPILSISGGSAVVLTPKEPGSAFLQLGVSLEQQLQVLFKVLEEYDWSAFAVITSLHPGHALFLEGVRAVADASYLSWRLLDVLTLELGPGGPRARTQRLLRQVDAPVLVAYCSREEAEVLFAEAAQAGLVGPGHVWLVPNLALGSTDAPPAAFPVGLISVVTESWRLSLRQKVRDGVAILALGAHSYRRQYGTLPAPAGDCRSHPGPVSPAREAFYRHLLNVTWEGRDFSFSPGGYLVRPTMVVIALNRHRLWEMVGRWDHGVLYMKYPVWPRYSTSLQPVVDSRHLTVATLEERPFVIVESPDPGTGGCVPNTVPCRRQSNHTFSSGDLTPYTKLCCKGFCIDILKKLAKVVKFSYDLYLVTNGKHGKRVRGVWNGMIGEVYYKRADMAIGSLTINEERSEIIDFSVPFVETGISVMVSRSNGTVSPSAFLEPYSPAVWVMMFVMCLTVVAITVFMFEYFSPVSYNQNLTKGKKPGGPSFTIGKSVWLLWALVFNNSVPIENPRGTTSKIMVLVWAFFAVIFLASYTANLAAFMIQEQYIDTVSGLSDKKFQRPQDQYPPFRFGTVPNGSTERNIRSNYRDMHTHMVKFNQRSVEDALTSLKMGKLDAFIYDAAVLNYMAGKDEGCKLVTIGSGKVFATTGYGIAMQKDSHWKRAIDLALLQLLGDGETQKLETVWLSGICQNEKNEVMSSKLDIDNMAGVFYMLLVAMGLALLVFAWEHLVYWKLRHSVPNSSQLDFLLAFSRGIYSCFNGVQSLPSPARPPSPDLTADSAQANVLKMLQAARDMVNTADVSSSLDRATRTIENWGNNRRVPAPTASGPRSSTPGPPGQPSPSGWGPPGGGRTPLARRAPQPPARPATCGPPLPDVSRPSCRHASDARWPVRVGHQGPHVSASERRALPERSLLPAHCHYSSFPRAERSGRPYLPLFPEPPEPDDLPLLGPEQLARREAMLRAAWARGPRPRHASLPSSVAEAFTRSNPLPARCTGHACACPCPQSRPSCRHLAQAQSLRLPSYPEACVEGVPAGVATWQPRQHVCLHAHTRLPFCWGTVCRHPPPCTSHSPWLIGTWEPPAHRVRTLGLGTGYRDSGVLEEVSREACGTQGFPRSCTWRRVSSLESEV

Chain of GluN1/GluN2C (Rattus norvegicus, UniProt Q00961) (Q00961 20-1237, other chains not shown): as above
Chain of GluN1/GluN2D (Q62645 28-1323, other chains not shown): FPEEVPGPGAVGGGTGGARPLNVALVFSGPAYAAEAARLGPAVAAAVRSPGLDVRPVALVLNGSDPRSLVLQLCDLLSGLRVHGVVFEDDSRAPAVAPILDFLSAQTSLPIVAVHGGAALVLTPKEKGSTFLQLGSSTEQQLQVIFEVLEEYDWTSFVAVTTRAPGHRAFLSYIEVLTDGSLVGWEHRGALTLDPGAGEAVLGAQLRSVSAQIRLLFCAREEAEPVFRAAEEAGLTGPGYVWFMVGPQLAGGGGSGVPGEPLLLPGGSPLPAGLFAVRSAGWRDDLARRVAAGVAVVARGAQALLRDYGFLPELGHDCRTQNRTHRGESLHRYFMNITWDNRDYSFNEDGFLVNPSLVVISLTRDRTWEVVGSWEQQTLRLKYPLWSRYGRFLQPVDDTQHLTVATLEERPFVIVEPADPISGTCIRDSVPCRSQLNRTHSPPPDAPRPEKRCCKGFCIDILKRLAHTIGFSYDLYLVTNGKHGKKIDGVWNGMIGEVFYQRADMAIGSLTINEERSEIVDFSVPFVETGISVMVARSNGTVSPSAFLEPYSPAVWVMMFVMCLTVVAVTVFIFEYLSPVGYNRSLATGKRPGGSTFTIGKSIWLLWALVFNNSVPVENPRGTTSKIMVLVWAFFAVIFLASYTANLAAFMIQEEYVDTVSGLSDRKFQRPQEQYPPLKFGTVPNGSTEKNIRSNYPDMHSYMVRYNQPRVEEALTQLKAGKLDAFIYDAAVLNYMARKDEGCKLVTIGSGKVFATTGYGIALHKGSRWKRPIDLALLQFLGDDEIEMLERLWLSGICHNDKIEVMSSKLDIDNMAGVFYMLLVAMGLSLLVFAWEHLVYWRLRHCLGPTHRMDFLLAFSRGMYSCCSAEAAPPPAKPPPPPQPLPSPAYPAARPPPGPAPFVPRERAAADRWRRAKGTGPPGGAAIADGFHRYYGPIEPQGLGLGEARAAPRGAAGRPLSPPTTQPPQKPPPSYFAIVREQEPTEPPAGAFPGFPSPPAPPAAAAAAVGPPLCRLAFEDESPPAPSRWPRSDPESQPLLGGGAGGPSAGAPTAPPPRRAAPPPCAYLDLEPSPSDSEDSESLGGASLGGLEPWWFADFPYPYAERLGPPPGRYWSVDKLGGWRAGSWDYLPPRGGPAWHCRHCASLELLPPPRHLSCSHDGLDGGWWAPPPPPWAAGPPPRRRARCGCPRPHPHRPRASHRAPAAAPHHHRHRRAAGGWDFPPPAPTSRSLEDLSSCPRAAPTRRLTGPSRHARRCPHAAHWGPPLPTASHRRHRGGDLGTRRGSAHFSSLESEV

COc1ccc(OCC2c3cnn(C)c3CCN2C(=O)c2cccc(Cl)c2)cc1 (stereo not shown) [25g, (3-Chlorophenyl)(4-((4-methoxyphenoxy)methyl)-1-methyl-1,4,6,7-tetrahydro-5H-pyrazolo[4,3-c]pyridin-5-yl)methanone]
pEC50 at GluN2C/D [1]: < 4.5

COc1ccc(OCC2c3cccn3CCN2C(=O)c2cccc(Cl)c2)cc1 (stereo not shown) [25i, (3-Chlorophenyl)(1-((4-methoxyphenoxy)methyl)-3,4-dihydropyrrolo[1,2-a]pyrazin-2(1H)-yl)methanone]
p(doubling conc.) at GluN2C/D [1]: 5.8–5.9

COc1ccc(OCC2c3cc(OC)c(OC)cc3CCN2C(=O)c2cccc(Cl)c2)cc1 (stereo not shown) [CIQ, (3-chlorophenyl)(6,7-dimethoxy-1-((4-methoxyphenoxy)-methyl)-3,4-dihydroisoquinolin-2(1H)-yl)methanone]
Cmax (ng/mL), plasma ([2]; 1:4:5 dimethylacetamide:PEG400:(5% dextrose in water)): 2090 ± 20 ng/mL
t1/2 (h), plasma [2]: 1.35 ± 0.12 h
bound to rat plasma protein [3]: > 99.9%

COc1ccc(OCC2c3cccn3CC(=O)N2Cc2cccc(C(F)(F)F)c2)cc1 (stereo not shown) [31a, 1-((4-Methoxyphenoxy)methyl)-2-(3-(trifluoromethyl)benzyl)-1,2-dihydropyrrolo[1,2-a]pyrazin-3(4H)-one]
inhibition of α4β2-nACh current response (α4β2-nACh): > 50%
p(doubling conc.) at GluN2C/D [1]: 5.9–6.1

COc1ccc(OCC2c3cc(OC)c(OC)cc3CC(=O)N2Cc2cccc(Cl)c2)cc1 (stereo not shown) [12m, 2-(3-Chlorobenzyl)-6,7-dimethoxy-1-((4-methoxyphenoxy)-methyl)-1,4-dihydroisoquinolin-3(2H)-one]
activity at GluN2A/B in words [4]: no activity

COc1ccc(OCC2c3sccc3CCN2C(=O)c2cccc(Cl)c2)cc1 (stereo not shown) [25a, (3-Chlorophenyl)(7-((4-methoxyphenoxy)methyl)-4,7-dihydrothieno[2,3-c]pyridin-6(5H)-yl)methanone]
maximum potentiation at GluN2C/D [1]: 280–350%
p(doubling conc.) at GluN2C/D [1]: 5.3–5.6
activity at GluN2A/B in words [4]: no activity

COc1ccc(OCC2c3occc3CCN2C(=O)c2cccc(Cl)c2)cc1 (stereo not shown) [25f, (3-Chlorophenyl)(7-((4-methoxyphenoxy)methyl)-4,7-dihydrofuro[2,3-c]pyridin-6(5H)-yl)methanone]
p(doubling conc.) at GluN2C/D [1]: 5.4–5.5

COc1ccc(OCC2c3ccsc3CCN2C(=O)c2cccc(Cl)c2)cc1 (stereo not shown) [25h, (3-Chlorophenyl)(4-((4-methoxyphenoxy)methyl)-6,7-dihydrothieno[3,2-c]pyridin-5(4H)-yl)methanone]
maximum potentiation at GluN2C/D [1]: 330–340%

1-((4-Ethoxyphenoxy)methyl)-2-(3-(trifluoromethyl)benzyl)-1,2-dihydropyrrolo[1,2-a]pyrazine-3(4H)-thione [compound 32]
max (%) GluN2C, pEC50 ND: percent potentiation at 30 μM drug (GluN1/GluN2C [5]): ND (120) %
activity at GluN2C/D in words [1]: complete loss of activity
max (%) GluN2D, pEC50 ND: percent potentiation at 30 μM drug (GluN1/GluN2D): ND (110) %

COc1cc2c(cc1OC)C(CO)N(C(=O)c1cccc(C(F)(F)F)c1)CC2 (stereo not shown) [17b, (1-(Hydroxymethyl)-6,7-dimethoxy-3,4-dihydroisoquinolin-2(1H)-yl)(3-(trifluoromethyl)phenyl)methanone]
activity at GluN2C/D in words [1]: not tolerated

COc1cc2c(cc1OC)C(COC1CCOCC1)N(C(=O)c1cccc(C(F)(F)F)c1)CC2 (stereo not shown) [18d, (6,7-Dimethoxy-1-(((tetrahydro-2H-pyran-4-yl)oxy)methyl)-3,4-dihydroisoquinolin-2(1H)-yl)(3-(trifluoromethyl)phenyl)methanone]
activity at GluN2C/D in words [1]: not tolerated

N#C[C@@H]1C[C@H]1c1c(Cl)ccc2nc(Cn3nc(C(F)(F)F)cc3Cl)cc(=O)n12 [GNE-5729]
EC50 [6]: 37 nM

COc1ccc(OCC2c3cccn3CC(=O)N2Cc2cccc(F)c2)cc1 (stereo not shown) [EU-1180–453, 2-(3-Fluorobenzyl)-1-((4-methoxyphenoxy)methyl)-1,2-dihydropyrrolo[1,2-a]pyrazin-3(4H)-one]
stable as a powder or a DMSO stock [7]: at least 30 days
Tmax ([8]; brain and plasma): 15 min
Cmax ([8]; plasma): 695 ± 111 ng/mL
bound to rat plasma protein [3]: 98.7%

COc1ccc(OCC2c3cc(OC)c(OC)cc3CCN2C(=O)c2cccc(Cl)c2)s1 (stereo not shown) [18a, (3-Chlorophenyl)(6,7-dimethoxy-1-(((5-methoxythiophen-2-yl)-oxy)methyl)-3,4-dihydroisoquinolin-2(1H)-yl)methanone]
activity at GluN2C/D in words [1]: not tolerated

COc1ccc(OCC2c3ccc(OC)cc3CC(=O)N2CCCC(F)(F)F)cc1 (stereo not shown) [12f, 6-Methoxy-1-((4-methoxyphenoxy)methyl)-2-(4,4,4-trifluorobutyl)-1,2-dihydroisoquinolin-3(4H)-one]
p(doubling conc.) at GluN2C/D [1]: 5.0–5.1

COc1ccc(OCC2c3cc(OC)sc3CCN2C(=O)c2cccc(Cl)c2)cc1 (stereo not shown) [25d, (3-Chlorophenyl)(2-methoxy-4-((4-methoxyphenoxy)methyl)-6,7-dihydrothieno[3,2-c]pyridin-5(4H)-yl)methanone]
EC50 (GluN1/GluN2C [9]): 5010 nM
Emax (GluN1/GluN2C [9]; read-out: max (%) GluN2C): 220%

COc1ccc(OCC2c3ccc(OC)cc3CC(=O)N2CC(F)(F)F)cc1 (stereo not shown) [12g, 6-Methoxy-1-((4-methoxyphenoxy)methyl)-2-(2,2,2-trifluoroethyl)-1,2-dihydroisoquinolin-3(4H)-one]
pEC50 at GluN2C/D [1]: < 4.5
